Data published in ChEMBL document CHEMBL1806455, “Synthesis, activity and pharmacokinetics of novel antibacterial 15-membered ring macrolones” (Eur J Med Chem, 2011).
Converted amounts (≈) assume the structure as drawn.

What was measured:
Type in all cases: functional
Streptococcus pneumoniae [1] = assay: Antibacterial activity against erythromycin-sensitive Streptococcus pneumoniae SP030 by broth microdilution method
Streptococcus pyogenes [2] = assay: Antibacterial activity against macrolide, lincosamide, streptogramin-resistant Streptococcus pyogenes 166 GR-Micro by broth microdilution method
Streptococcus pneumoniae [3] = assay: Antibacterial activity against efflux-mediated macrolide-resistant Streptococcus pneumoniae Ci137 by broth microdilution method
Streptococcus pneumoniae [4] = assay: Antibacterial activity against constitutive macrolide, lincosamide, streptogramin-resistant Streptococcus pneumoniae 58 spain by broth microdilution method
Staphylococcus aureus [5] = assay: Antibacterial activity against constitutive macrolide, lincosamide, streptogramin-resistant Staphylococcus aureus PK2 by broth microdilution method
Streptococcus pyogenes [6] = assay: Antibacterial activity against inducible macrolide-lincosamide-streptogramin B resistant Streptococcus pyogenes Finland 11 by broth microdilution method
Staphylococcus aureus [7] = assay: Antibacterial activity against inducible macrolide-lincosamide-streptogramin B resistant Staphylococcus aureus 90256 by broth microdilution method
Staphylococcus aureus [8] = assay: Antibacterial activity against efflux-mediated macrolide-resistant Staphylococcus aureus PK1 by broth microdilution method
Streptococcus pyogenes [9] = assay: Antibacterial activity against erythromycin-sensitive Streptococcus pyogenes 3565 by broth microdilution method
Streptococcus pneumoniae [10] = assay: Antibacterial activity against inducible macrolide-resistant, constitutive lincosamide, streptogramin-resistant Streptococcus pneumoniae 134 GR M by broth microdilution method
Haemophilus influenzae = assay: Antibacterial activity against Haemophilus influenzae ATCC 49247 by broth microdilution method
Moraxella catarrhalis = assay: Antibacterial activity against Moraxella catarrhalis ATCC 23246 by broth microdilution method
Staphylococcus aureus [11] = assay: Antibacterial activity against erythromycin-sensitive Staphylococcus aureus ATCC 13709 by broth microdilution method
Streptococcus pyogenes [12] = assay: Antibacterial activity against efflux-mediated macrolide-resistance Streptococcus pyogenes 2 Finland by broth microdilution method

SMILES	MIC (Streptococcus pneumoniae [1]) [µg/mL]	MIC (Streptococcus pyogenes [2]) [µg/mL]	MIC (Streptococcus pneumoniae [3]) [µg/mL]	MIC (Streptococcus pneumoniae [4]) [µg/mL]	MIC (Staphylococcus aureus [5]) [µg/mL]	MIC (Streptococcus pyogenes [6]) [µg/mL]	MIC (Staphylococcus aureus [7]) [µg/mL]	MIC (Staphylococcus aureus [8]) [µg/mL]	MIC (Streptococcus pyogenes [9]) [µg/mL]	MIC (Streptococcus pneumoniae [10]) [µg/mL]	MIC (Haemophilus influenzae) [µg/mL]	MIC (Moraxella catarrhalis) [µg/mL]	MIC (Staphylococcus aureus [11]) [µg/mL]	MIC (Streptococcus pyogenes [12]) [µg/mL]
CC[C@H]1OC(=O)[C@H](C)C(=O)[C@H](C)[C@@H](O[C@@H]2O[C@H](C)C[C@H](N(C)C)[C@H]2O)[C@](C)(OC)C[C@@H](C)C(=O)[C@H](C)[C@H]2N(CCCCn3cnc(-c4cccnc4)c3)C(=O)O[C@]12C [TELITHROMYCIN]	≤ 0.125	16 (≈ 19.7 µM)	0.25 (≈ 0.308 µM)	0.25 (≈ 0.308 µM)	> 64	0.06 (≈ 0.0739 µM)	≤ 0.125	≤ 0.125	≤ 0.125	0.25 (≈ 0.308 µM)	2 (≈ 2.46 µM)	≤ 0.125	0.125 (≈ 0.154 µM)	0.5 (≈ 0.616 µM)
CC[C@H]1OC(=O)[C@H](C)[C@@H](O[C@H]2C[C@@](C)(OC)[C@@H](OC(=O)CCOCCOc3cc4c(=O)c(C(=O)OCOC(=O)C(C)(C)C)cn(C5CC5)c4cc3Cl)[C@H](C)O2)[C@H](C)[C@@H](O[C@@H]2O[C@H](C)C[C@H](N(C)C)[C@H]2O)[C@](C)(O)C[C@@H](C)CN(C)[C@H](C)[C@@H](O)[C@]1(C)O	≤ 0.125	≤ 0.125	≤ 0.125	≤ 0.125	> 64	≤ 0.125	4 (≈ 3.22 µM)	2 (≈ 1.61 µM)	≤ 0.125	0.25 (≈ 0.201 µM)	4 (≈ 3.22 µM)	4 (≈ 3.22 µM)	1 (≈ 0.806 µM)	≤ 0.125
CC[C@H]1OC(=O)[C@H](C)[C@@H](O[C@H]2C[C@@](C)(OC)[C@@H](OC(=O)CCOCCNc3cc4c(=O)c(C(=O)OCOC(=O)C(C)(C)C)cn(C5CC5)c4cc3Cl)[C@H](C)O2)[C@H](C)[C@@H](O[C@@H]2O[C@H](C)C[C@H](N(C)C)[C@H]2O)[C@](C)(O)C[C@@H](C)CN(C)[C@H](C)[C@@H](O)[C@]1(C)O	≤ 0.125	≤ 0.125	≤ 0.125	0.5 (≈ 0.403 µM)	> 64	≤ 0.125	4 (≈ 3.23 µM)	2 (≈ 1.61 µM)	≤ 0.125	≤ 0.125	1 (≈ 0.806 µM)	2 (≈ 1.61 µM)	1 (≈ 0.806 µM)	≤ 0.125
CC[C@H]1OC(=O)[C@H](C)[C@@H](O[C@H]2C[C@@](C)(OC)[C@@H](OC(=O)CCOCCOCCNc3ccc4c(c3)c(=O)c(C(=O)O)cn4CC)[C@H](C)O2)[C@H](C)[C@@H](O[C@@H]2O[C@H](C)C[C@H](N(C)C)[C@H]2O)[C@](C)(O)C[C@@H](C)CN(C)[C@H](C)[C@@H](O)[C@]1(C)O	≤ 0.125	≤ 0.125	≤ 0.125	≤ 0.125	64 (≈ 57 µM)	≤ 0.125	0.25 (≈ 0.223 µM)	≤ 0.125	≤ 0.125	1 (≈ 0.89 µM)	2 (≈ 1.78 µM)	2 (≈ 1.78 µM)	0.25 (≈ 0.223 µM)	≤ 0.125
CC[C@H]1OC(=O)[C@H](C)[C@@H](O[C@H]2C[C@@](C)(OC)[C@@H](OC(=O)CCOCCOc3cc4c(=O)c(C(=O)O)cn(C5CC5)c4cc3Cl)[C@H](C)O2)[C@H](C)[C@@H](O[C@@H]2O[C@H](C)C[C@H](N(C)C)[C@H]2O)[C@](C)(O)C[C@@H](C)CN(C)[C@H](C)[C@@H](O)[C@]1(C)O	≤ 0.125	0.25 (≈ 0.222 µM)	≤ 0.125	0.5 (≈ 0.444 µM)	> 64	≤ 0.125	0.5 (≈ 0.444 µM)	0.5 (≈ 0.444 µM)	≤ 0.125	0.25 (≈ 0.222 µM)	1 (≈ 0.887 µM)	1 (≈ 0.887 µM)	0.25 (≈ 0.222 µM)	≤ 0.125
CC[C@H]1OC(=O)[C@H](C)[C@@H](O[C@H]2C[C@@](C)(OC)[C@@H](OC(=O)CCOCCOc3ccc4c(c3)c(=O)c(C(=O)OC(C)C)cn4C3CC3)[C@H](C)O2)[C@H](C)[C@@H](O[C@@H]2O[C@H](C)C[C@H](N(C)C)[C@H]2O)[C@](C)(O)C[C@@H](C)CN(C)[C@H](C)[C@@H](O)[C@]1(C)O	≤ 0.125	≤ 0.125	≤ 0.125	≤ 0.125	> 64	≤ 0.125	32 (≈ 28.2 µM)	16 (≈ 14.1 µM)	≤ 0.125	≤ 0.125	4 (≈ 3.53 µM)	2 (≈ 1.76 µM)	1 (≈ 0.882 µM)	≤ 0.125
CCCOC(=O)c1cn(C2CC2)c2cc(Cl)c(NCCOCCC(=O)O[C@H]3[C@H](C)O[C@@H](O[C@H]4[C@H](C)[C@@H](O[C@@H]5O[C@H](C)C[C@H](N(C)C)[C@H]5O)[C@](C)(O)C[C@@H](C)CN(C)[C@H](C)[C@@H](O)[C@](C)(O)[C@@H](CC)OC(=O)[C@@H]4C)C[C@@]3(C)OC)cc2c1=O	≤ 0.125	≤ 0.125	≤ 0.125	≤ 0.125	> 64	≤ 0.125	1 (≈ 0.856 µM)	1 (≈ 0.856 µM)	≤ 0.125	≤ 0.125	4 (≈ 3.43 µM)	2 (≈ 1.71 µM)	1 (≈ 0.856 µM)	≤ 0.125
CC[C@H]1OC(=O)[C@H](C)[C@@H](O[C@H]2C[C@@](C)(OC)[C@@H](OC(=O)CCOCCOc3ccc4c(c3)c(=O)c(C(=O)O)cn4C3CC3)[C@H](C)O2)[C@H](C)[C@@H](O[C@@H]2O[C@H](C)C[C@H](N(C)C)[C@H]2O)[C@](C)(O)C[C@@H](C)CN(C)[C@H](C)[C@@H](O)[C@]1(C)O	≤ 0.125	0.25 (≈ 0.229 µM)	≤ 0.125	≤ 0.125	32 (≈ 29.3 µM)	≤ 0.125	1 (≈ 0.915 µM)	0.25 (≈ 0.229 µM)	≤ 0.125	≤ 0.125	0.5 (≈ 0.458 µM)	0.5 (≈ 0.458 µM)	≤ 0.125	≤ 0.125
CCCn1cc(C(=O)O)c(=O)c2cc(NCCOCCOCCC(=O)O[C@H]3[C@H](C)O[C@@H](O[C@H]4[C@H](C)[C@@H](O[C@@H]5O[C@H](C)C[C@H](N(C)C)[C@H]5O)[C@](C)(O)C[C@@H](C)CN(C)[C@H](C)[C@@H](O)[C@](C)(O)[C@@H](CC)OC(=O)[C@@H]4C)C[C@@]3(C)OC)c(Cl)cc21	≤ 0.125	1 (≈ 0.853 µM)	≤ 0.125	≤ 0.125	> 64	≤ 0.125	32 (≈ 27.3 µM)	0.25 (≈ 0.213 µM)	≤ 0.125	1 (≈ 0.853 µM)	4 (≈ 3.41 µM)	0.5 (≈ 0.427 µM)	0.25 (≈ 0.213 µM)	≤ 0.125
CC[C@H]1OC(=O)[C@H](C)[C@@H](O[C@H]2C[C@@](C)(OC)[C@@H](OC(=O)CCOCCOCCNc3cc4c(=O)c(C(=O)O)cn(CC)c4cc3Cl)[C@H](C)O2)[C@H](C)[C@@H](O[C@@H]2O[C@H](C)C[C@H](N(C)C)[C@H]2O)[C@](C)(O)C[C@@H](C)CN(C)[C@H](C)[C@@H](O)[C@]1(C)O	≤ 0.125	0.25 (≈ 0.216 µM)	≤ 0.125	≤ 0.125	16 (≈ 13.8 µM)	≤ 0.125	≤ 0.125	≤ 0.125	≤ 0.125	≤ 0.125	1 (≈ 0.864 µM)	0.5 (≈ 0.432 µM)	≤ 0.125	≤ 0.125
